Reference: the supplement of paper PMC10627819

Tests used:
[1] = tested on: B. subtilis 168; assay: fitness (endpoint OD595 vs no drug) (fraction); higher = more growth
Procedure, shortened: (§1)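 Cultures at OD595 0.01 were dispensed into 384-well plates in TSB, LB Lennox or CY and incubated at 37 °C. Every 30 min for 14 h, OD595 was read and corrected by the first reading. Fitness is the optical density at entry into stationary phase relative to the robust mean of no-drug control wells, capped at 1.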

[2] = tested on: S. aureus DSM 20231; assay: as above
Procedure, shortened: as §1

[3] = tested on: S. aureus Newman; assay: as above
Procedure, shortened: as §1

[4] = tested on: S. pneumoniae D39V; assay: as above
Procedure, shortened: as §1

[5] = tested on: B. subtilis 168; assay: Bliss interaction score (quartile over a dose matrix) (fitness difference); higher = more antagonism (negative = synergy)
Procedure, shortened: (§2)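 Values were capped at 1 after dividing OD595 at stationary-phase entry by the plate's robust no-drug mean. This ratio is fitness, and single-drug fitness was inferred from the combination data. The Bliss score is observed minus product-expected fitness, given as quartiles over technical, biological and donor/recipient replicates.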

[6] = tested on: S. aureus DSM 20231; assay: as above
Procedure, shortened: as §2

[7] = tested on: S. aureus Newman; assay: as above
Procedure, shortened: as §2

[8] = tested on: S. pneumoniae D39V; assay: as above
Procedure, shortened: as §2
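Throughout, for Bliss interaction score (quartile over a dose matrix): first quartile when negative (synergy) and third quartile when positive (antagonism).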

CO/N=C(\C(=O)N[C@@H]1C(=O)N2C(C(=O)O)=C(COC(C)=O)CS[C@H]12)c1csc(N)n1 [Cefotaxime] + O=C(O[C@@H]1Cc2c(O)cc(O)cc2O[C@@H]1c1cc(O)c(O)c(O)c1)c1cc(O)c(O)c(O)c1 [EGCG]
fitness, one replicate
Details | first compound 0.00775 µg/mL | first compound 0.0155 µg/mL | first compound 0.031 µg/mL | first compound 0.039 µg/mL | first compound 0.0625 µg/mL | first compound 0.125 µg/mL | first compound 0.25 µg/mL | first compound 0.312 µg/mL
[1], partner 6.25 µg/mL | 0.847 | 0.723 | 0.588 | – | 0.532 | 0.462 | 0.403 | –
[1], partner 12.5 µg/mL | 0.466 | 0.341 | 0.284 | – | 0.59 | 0.521 | 0.475 | –
[1], partner 25 µg/mL | 0.192 | 0.129 | 0.133 | – | 0.547 | 0.484 | 0.32 | –
[3], partner 12.5 µg/mL | – | – | – | 0.751 | – | – | – | 0.317
[3], partner 25 µg/mL | – | – | – | 0.786 | – | – | – | 0.268
[3], partner 50 µg/mL | – | – | – | 0.726 | – | – | – | 0.14

fitness
Details | partner 6.25 µg/mL | partner 12.5 µg/mL | partner 25 µg/mL | partner 50 µg/mL
[1], first compound 0.5 µg/mL | 0.265 | 0.293 | 0.103 | –
[1], first compound 1 µg/mL | 0.119 | 0.166 | 0.0631 | –
[1], first compound 2 µg/mL | 0.0879 | 0.142 | 0.0481 | –
[2], first compound 0.039 µg/mL | – | 0.696 | 0.702 | 0.651
[2], first compound 0.078 µg/mL | – | 0.655 | 0.704 | 0.625
[2], first compound 0.156 µg/mL | – | 0.685 | 0.697 | 0.746
[2], first compound 0.312 µg/mL | – | 0.736 | 0.622 | –
[3], first compound 0.078 µg/mL | – | 0.594 | 0.615 | 0.573
[3], first compound 0.156 µg/mL | – | 0.574 | 0.391 | 0.564
[3], first compound 0.625 µg/mL | – | 0.198 | 0.071 | 0.0397
[3], first compound 1.25 µg/mL | – | 0.0285 | 0.0144 | 0.0286
[3], first compound 2.5 µg/mL | – | 0.0123 | 0.0423 | 0.0268
[4], first compound 0.0018 µg/mL | – | 0.977 | 0.978 | 0.939
[4], first compound 0.0035 µg/mL | – | 0.989 | ≥ 1 | 0.955
[4], first compound 0.007 µg/mL | – | 0.889 | 0.914 | 0.883

Details | Bliss interaction score
[5] | 0.112
[6] | 0.0466
[7] | 0.0329
[8] | 0.07
